Tests used:
[1] = tested on: antibodies in sera from SARS patients (sera 1a, 1b, 2, 6, 37, 62, London, SARS-yellow, SARS-green); type: binding, human; design: Binding of serum 6 to linear peptides of protein X1 of SARS-CoV Urbani / Binding of serum 37 to linear peptides of protein X1 of SARS-CoV Urbani / Binding of serum 6 to looped/cyclic peptide (PEPSCAN-ELISA) / Binding of serum 37 to looped/cyclic peptide (PEPSCAN-ELISA) / Binding of serum 37 to looped/cyclic peptides of protein X1 of SARS-CoV Urbani / Binding of serum 6 to linear peptides of protein X2 / Binding of serum 37 to linear peptides of protein X2 / Binding of serum 37 to looped/cyclic peptides of protein X2 of SARS-CoV Urbani / Binding of serum 6 to linear peptides of protein M of SARS-CoV Urbani / Binding of serum 37 to linear peptides of protein M of SARS-CoV Urbani / Binding of serum 6 to looped/cyclic peptides of protein M of SARS-CoV Urbani / Binding of serum 37 to looped/cyclic peptides of protein M of SARS-CoV Urbani / Binding of serum 6 to linear peptides of protein X3 of SARS-CoV Urbani / Binding of serum 37 to linear peptides of protein X3 of SARS-CoV Urbani / Binding of serum 37 to looped/cyclic peptides of protein X3 of SARS-CoV Urbani / Binding of serum 6 to linear peptides of protein X4 of SARS-CoV Urbani / Binding of serum 37 to linear peptides of protein X4 of SARS-CoV Urbani / Binding of serum 37 to looped/cyclic peptides of protein X4 of SARS-CoV Urbani / Binding of serum 6 to linear peptides of protein X5 of SARS-CoV Urbani / Binding of serum 37 to linear peptides of protein X5 of SARS-CoV Urbani / Binding of serum 37 to looped/cyclic peptides of protein X5 of SARS-CoV Urbani / Binding of serum 6 to linear peptides of protein N of SARS-CoV Urbani / Binding of serum 37 to linear peptides of protein N of SARS-CoV Urbani / Binding of serum 6 to linear peptide (PEPSCAN-ELISA) / Binding of serum 1a to looped/cyclic peptides of protein N of SARS-CoV Urbani / Binding of serum 1b to looped/cyclic peptides of protein N of SARS-CoV Urbani / Binding of serum 2 to looped/cyclic peptides of protein N of SARS-CoV Urbani / Binding of serum 6 to looped/cyclic peptides of protein N of SARS-CoV Urbani / Binding of serum 37 to looped/cyclic peptides of protein N of SARS-CoV Urbani / Binding of serum 62 to looped/cyclic peptides of protein N of SARS-CoV Urbani / Binding of serum London to looped/cyclic peptides of protein N of SARS-CoV Urbani / Binding of serum SARS-green to looped/cyclic peptides of protein N of SARS-CoV Urbani: unit not given here
[2] = tested on: control sera (pooled serum of ten healthy LUMC hospital workers; commercial negative donor pooled serum from the Dutch bloodbank); type: binding, human; design: Binding of Control serum LUMC to linear peptides / Binding of Control serum Blood-bank to linear peptides / Binding of Control serum LUMC to looped peptides / Binding of Control Serum Blood-Bank to Looped peptides / Binding of Control serum LUMC to linear peptides of the protein M of SARS-CoV Urbani / Binding of Control serum Blood-bank to linear peptides of the protein M of SARS-CoV Urbani / Binding of Control serum LUMC to looped peptides of the protein M of SARS-CoV Urbani / Binding of Control Serum Blood-Bank to Looped peptides of the protein M of SARS-CoV Urbani: unit not given here
[3] = tested on: rabbit serum obtained by immunizing a rabbit with the SARS-CoV strain Frankfurt 1; type: binding; design: Binding of a rabbit serum to linear peptides / Binding of a rabbit serum to looped peptides / Rabbit serum linear peptides / Rabbit serum looped peptides / Binding of a rabbit serum to linear peptides of protein N of SARS-CoV Urbani (Rabbit serum linear peptides) / Binding of a rabbit serum to looped/cyclic peptides of protein N of SARS-CoV Urbani (Rabbit serum looped peptides): unit not given here

ACIVGLMWLSYFVAS
Binding of serum 1a to linear peptides of protein M of SARS-CoV Urbani [1]: 0.7
Binding of serum 1a to looped/cyclic peptides of protein M of SARS-CoV Urbani [1]: 0.6
Binding of serum 1b to linear peptides of protein M of SARS-CoV Urbani [1]: 0.5
Binding of serum 1b to looped/cyclic peptides of protein M of SARS-CoV Urbani [1]: 0.3
Binding of serum 2 to linear peptides of protein M of SARS-CoV Urbani [1]: 0.5
Binding of serum 2 to looped/cyclic peptides of protein M of SARS-CoV Urbani [1]: 0.5
Binding of serum 6 to linear peptides of protein M of SARS-CoV Urbani [1]: 0.4
Binding of serum 6 to looped/cyclic peptides of protein M of SARS-CoV Urbani [1]: 0.6
Binding of serum 37 to linear peptides of protein M of SARS-CoV Urbani [1]: 0.6
Binding of serum 37 to looped/cyclic peptides of protein M of SARS-CoV Urbani [1]: 0.5
Binding of serum 62 to linear peptides of protein M of SARS-CoV Urbani [1]: 0.7
Binding of serum 62 to looped/cyclic peptides of protein M of SARS-CoV Urbani [1]: 0.4
Binding of serum London to linear peptides of protein M of SARS-CoV Urbani [1]: 0.3
Binding of serum London to looped/cyclic peptides of protein M of SARS-CoV Urbani [1]: 0.2
Binding of serum SARS-green to linear peptides of protein M of SARS-CoV Urbani [1]: 0.2
Binding of serum SARS-green to looped/cyclic peptides of protein M of SARS-CoV Urbani [1]: 0.2
Binding of serum SARS-yellow to linear peptides of protein M of SARS-CoV Urbani [1]: 0.1
Binding of serum SARS-yellow to looped/cyclic peptides of protein M of SARS-CoV Urbani [1]: 0.4
Binding of Control Serum Blood-Bank to Looped peptides of the protein M of SARS-CoV Urbani [2]: 0.6
Binding of Control serum Blood-bank to linear peptides of the protein M of SARS-CoV Urbani [2]: 0.6
Binding of Control serum LUMC to linear peptides of the protein M of SARS-CoV Urbani [2]: 0.3
Binding of Control serum LUMC to looped peptides of the protein M of SARS-CoV Urbani [2]: 0.5
Rabbit serum linear peptides [3]: 0.3
Rabbit serum looped peptides [3]: 0.8

ACRIIMRCWLCWKCK
Recognition of the peptide by sera of SARS-CoV infected individuals, and form (linear, looped/cyclic) in which it is recognized [1]: recognized in linear form
Binding of Control Serum Blood-Bank to Looped peptides [2]: 0.1
Binding of Control serum Blood-bank to linear peptides [2]: 1.0
Binding of Control serum LUMC to linear peptides [2]: 0.8
Binding of Control serum LUMC to looped peptides [2]: 0.3
Recognition of the peptide by the rabbit serum [3]: recognized

ADGTRHTYQLRARSV
Binding of serum 1a to linear peptides of protein X4 of SARS-CoV Urbani [1]: 0.7
Binding of serum 1a to looped/cyclic peptides of protein X4 of SARS-CoV Urbani [1]: 0.7
Binding of serum 1b to linear peptides of protein X4 of SARS-CoV Urbani [1]: 0.6
Binding of serum 1b to looped/cyclic peptides of protein X4 of SARS-CoV Urbani [1]: 0.4
Binding of serum 2 to linear peptides of protein X4 of SARS-CoV Urbani [1]: 0.6
Binding of serum 2 to looped/cyclic peptides of protein X4 of SARS-CoV Urbani [1]: 0.6
Binding of serum 6 to linear peptides of protein X4 of SARS-CoV Urbani [1]: 0.5
Binding of serum 6 to looped/cyclic peptides of protein X4 of SARS-CoV Urbani [1]: 0.7
Binding of serum 37 to linear peptides of protein X4 of SARS-CoV Urbani [1]: 0.7
Binding of serum 37 to looped/cyclic peptides of protein X4 of SARS-CoV Urbani [1]: 0.7
Binding of serum 62 to linear peptides of protein X4 of SARS-CoV Urbani [1]: 0.7
Binding of serum 62 to looped/cyclic peptides of protein X4 of SARS-CoV Urbani [1]: 0.6
Binding of serum London to linear peptides of protein X4 of SARS-CoV Urbani [1]: 0.7
Binding of serum London to looped/cyclic peptides of protein X4 of SARS-CoV Urbani [1]: 0.3
Binding of serum SARS-green to linear peptides of protein X4 of SARS-CoV Urbani [1]: 0.6
Binding of serum SARS-green to looped/cyclic peptides of protein X4 of SARS-CoV Urbani [1]: 0.5
Binding of serum SARS-yellow to linear peptides of protein X4 of SARS-CoV Urbani [1]: 0.7
Binding of serum SARS-yellow to looped/cyclic peptides of protein X4 of SARS-CoV Urbani [1]: 0.6
Binding of Control Serum Blood-Bank to Looped peptides [2]: 0.6
Binding of Control serum Blood-bank to linear peptides [2]: 0.6
Binding of Control serum LUMC to linear peptides [2]: 0.6
Binding of Control serum LUMC to looped peptides [2]: 0.6
Recognition of the peptide by the rabbit serum [3]: recognized

— patent US20070128217A1 (priority 2003, published 2007)
